# Structures can show the parent of a compound that is named as a salt.
# Test system: PAN02 pancreatic tumors
# Test: PAN02 pancreatic tumor model, ER-886046 with gemcitabine and radiation
# Type: in vivo, mice
# Details: gemcitabine single 40 mg/kg + RT single 6 Gy on day 27; first study (FIG. 10)
# Experimental: FIG. 10. […] Antitumor activity of gemcitabine plus local radiation (RT) administered to PAN02 pancreatic tumors in C57BL/6 mice with or without ER-886046. Gemcitabine and RT dosing: a single 40 mg/kg dose of gemcitabine and a single 6 Gy dose of RT, was administered on day 27 post tumor cell injection. ER-8806046 was administered daily in an amount of 150 mg/kg from day 27 post tumor cell injection until the end of the study.
# FIG. 11A to FIG. 11B. Additional experiments with combination therapy of ER-886046 and anti-metabolite chemotherapy with radiation compared to anti-metabolite chemotherapy with radiation alone. Panel shown in FIG. 11A) Gemcitabine and RT dosing: a single 40 mg/kg dose of gemcitabine and a single 6 Gy dose of RT, was administered on day 19 post tumor cell injection. ER-8806046 was administered daily in an amount of 150 mg/kg from day 19 post tumor cell injection until the end of the study. Panel shown in FIG. 11B) Gemcitabine and RT dosing: a single 40 mg/kg dose of gemcitabine and a single 6 Gy dose of RT, was administered on day 12 post tumor cell injection. ER-8806046 was administered daily in an amount of 150 mg/kg from day 12 post tumor cell injection until the end of the study. Average tumor sizes of mouse pancreatic PAN02 tumor-bearing mice that received vehicles, ER-886046, gemcitabine (gem) plus radiation (RT), ER-886046 plus RT, or ER-886046 plus gemcitabine and RT at indicated dosages and schedules. A and B represent each independent study. N=8-10 per group. NS, not significant; *, p<0.05; **, p<0.01; ***, p<0.001; and ****, p<0.0001, two-way ANOVA test.
# Animal studies; In vitro cultured cancer cells were harvested and suspended in 100 μl of cold HBSS buffer at cell concentrations of 1.0×10^6 cells/ml (CT-26 cells) or of 1.0×10^7 cells/ml (PAN02 cells) and subcutaneously (sc) injected into the mice using a 26 g syringe on day 0. At the dates as indicated in the figures, the mice were randomized based on the tumor size followed by treatments with local radiation alone, gemcitabine alone (intravenous administration), ER-886046 alone (oral administration), or combinations of these treatments. […] The tumor sizes were measured twice a week by a digital caliber (Mitutoyo Corp), and the volume was calculated using the formula (1×w^2)/2=mm^3, where 1 and w refer to the larger and smaller perpendicular dimensions collected at each measurement. Graphs of group tumor sizes (mean±SEM) versus time were plotted using software GraphPad Prism 6 (Lake Forest, Calif.). Two way ANOVA was used for statistical calculation among the groups. N=8-10 in each treatment group.
compound,measurement,value
"Nc1ccn([C@@H]2O[C@H](CO)[C@@H](O)C2(F)F)c(=O)n1 [gemcitabine, Gemcitabine hydrochloride, reference compound]",tumor growth delay activity,weak but statistically significant tumor growth delay activity

# Reference: US11707448B2, “Combination therapies for the treatment of cancer” (Eisai R&D Management Co., Ltd., priority 2014, dated 2023)
